# Test system: HCV Replicon IB
# Test: HCV replicon assay in Huh-7 cells, genotype 1b (Rluc luciferase readout)
# Format: cell-based, hepatitis C virus
# Conditions: HCV1B replicon, Huh-7 cells, 3 days; read-out: EC50_HCV1B_
row,Structure (SMILES),EC50
1,CC(C)(C)c1cc(C2CC2)cc2c(N)cc(C(=O)NCC3CS(=O)(=O)CCN3)nc12 (centres unmarked) [Compound 324],3.63 nM

# Same assay, conditions: Hepatitis C virus, 72 h; 10 uM; 1b-Rluc replicon, Huh-7 cells, 3 days; read-out: Inhibition @ 10 uM in 1b-Rluc
row,Structure (SMILES),inhibition at 10 µM
1,Cc1cc(-c2nnc(NCCO)o2)nc2c(C(F)(F)F)cc(C3CC3)cc12 [Compound 255],99.4%
2,Cc1cc(-c2nnc(NCCCN3CCCCC3)o2)nc2c(C(F)(F)F)cc(C3CC3)cc12 [Compound 256],99.4%
3,Cc1cc(-c2nnc(NCc3ncc[nH]3)o2)nc2c(C(F)(F)F)cc(C3CC3)cc12 [Compound 257],99.7%
4,Cc1cc(-c2nnc(NCCCCO)o2)nc2c(C(F)(F)F)cc(C3CC3)cc12 [Compound 258],100%
5,Cc1cc(-c2nnc(NCCCCCO)o2)nc2c(C(F)(F)F)cc(C3CC3)cc12 [Compound 259],98.4%
6,Cc1cc(-c2nnc(NCC(C)(C)CO)o2)nc2c(C(F)(F)F)cc(C3CC3)cc12 [Compound 260],96.7%
7,Cc1cc(-c2nnc(NC(C)(C)CO)o2)nc2c(C(F)(F)F)cc(C3CC3)cc12 [Compound 261],99.2%
8,CCCC(=O)Nc1nnc(-c2cc(C)c3cc(C4CC4)cc(C(F)(F)F)c3n2)o1 [Compound 262],99.7%
9,Cc1cc(-c2nnc(NCCS(C)(=O)=O)o2)nc2c(C(F)(F)F)cc(C3CC3)cc12 [Compound 265],98%
10,Cc1cc(-c2nnc(NCC3CCS(=O)(=O)C3)o2)nc2c(C(F)(F)F)cc(C3CC3)cc12 (centres unmarked) [Compound 266],90.6%
11,Cc1cc(-c2nnc(NCCCS(N)(=O)=O)o2)nc2c(C(F)(F)F)cc(C3CC3)cc12 [Compound 267],97.7%
12,Cc1cc(-c2nnc(NCC3(C#N)CC3)o2)nc2c(C(F)(F)F)cc(C3CC3)cc12 [Compound 268],99.4%
13,Cc1cc(-c2nnc(NCCCS(C)(=O)=O)o2)nc2c(C(F)(F)F)cc(C3CC3)cc12 [Compound 269],87.4%
14,Cc1cc(-c2nnc(NCCS(=O)(=O)N(C)C)o2)nc2c(C(F)(F)F)cc(C3CC3)cc12 [Compound 270],84.7%
15,Cc1cc(-c2nnc(Nc3ccccc3)[nH]2)nc2c(C(F)(F)F)cc(C3CC3)cc12 [Compound 272],93.6%
16,CCCCNc1nnc(-c2cc(C)c3cc(OC)cc(C(F)(F)F)c3n2)o1 [Compound 273],100%
17,COCCCNc1nnc(-c2cc(C)c3cc(OC)cc(C(F)(F)F)c3n2)o1 [Compound 274],99.4%
18,COCCNc1nnc(-c2cc(C)c3cc(OC)cc(C(F)(F)F)c3n2)o1 [Compound 275],99.7%
19,CCOCCNc1nnc(-c2cc(C)c3cc(OC)cc(C(F)(F)F)c3n2)o1 [Compound 276],97.6%
20,COc1cc(C(F)(F)F)c2nc(-c3nnc(NCCCO)o3)cc(C)c2c1 [Compound 277],98.2%
21,COc1cc(C(F)(F)F)c2nc(-c3nnc(NCC4OCCO4)o3)cc(C)c2c1 [Compound 278],99.9%
22,COc1cc(C(F)(F)F)c2nc(-c3nnc(NCC(=O)N(C)C)o3)cc(C)c2c1 [Compound 279],98.4%
23,Cc1cc(-c2nnc(NCC3OCCO3)o2)nc2c(C(F)(F)F)cc(OCC(F)(F)F)cc12 [Compound 280],99.9%
24,Cc1cc(-c2nnc(NCC(=O)N(C)C)o2)nc2c(C(C)(C)C)cc(C3CC3)cc12 [Compound 281],99.8%

row,Structure (SMILES),inhibition at 10 µM
1,Cc1cc(-c2nnc(NCCCO)o2)nc2c(C(C)(C)C)cc(C3CC3)cc12 [Compound 282],99.9%
2,Cc1cc(-c2nnc(NCC3OCCO3)o2)nc2c(C(C)(C)C)cc(C3CC3)cc12 [Compound 283],100%
3,Cc1cc(-c2nnc(NCCCCO)o2)nc2c(C(C)(C)C)cc(C3CC3)cc12 [Compound 284],99.9%
4,Cc1cc(-c2nnc(NCCS(C)(=O)=O)o2)nc2c(C(C)(C)C)cc(C3CC3)cc12 [Compound 285],99.6%
5,Cc1cc(-c2nnc(NCCCO)s2)nc2c(C(F)(F)F)cc(C3CC3)cc12 [Compound 286],99.9%
6,Cc1cc(-c2nnc(NCCCOP(=O)(O)O)s2)nc2c(C(F)(F)F)cc(C3CC3)cc12 [Compound 287],99.9%
7,CCCCNc1nnc(-c2cc(C)c3cc(C4CC4)cc(C(F)(F)F)c3n2)s1 [Compound 288],100%
8,Cc1cc(-c2nnc(NS(C)(=O)=O)s2)nc2c(C(F)(F)F)cc(C3CC3)cc12 [Compound 289],70.7%
9,COCCCNc1nnc(-c2cc(C)c3cc(C4CC4)cc(C(F)(F)F)c3n2)s1 [Compound 290],99.9%
10,Cc1cc(-c2nnc(NCCCCCO)s2)nc2c(C(F)(F)F)cc(C3CC3)cc12 [Compound 291],99.1%
11,Cc1cc(-c2nnc(NCCOCCO)s2)nc2c(C(F)(F)F)cc(C3CC3)cc12 [Compound 292],97.9%
12,CCOCCOCCOCCCNc1nnc(-c2cc(C)c3cc(C4CC4)cc(C(F)(F)F)c3n2)s1 [Compound 293],96%
13,Cc1cc(-c2nnc(NCCC3OCCO3)s2)nc2c(C(F)(F)F)cc(C3CC3)cc12 [Compound 294],99.9%
14,Cc1cc(-c2nnc(NCCC(C)(C)O)s2)nc2c(C(F)(F)F)cc(C3CC3)cc12 [Compound 295],98.1%
15,Cc1cc(-c2nnc(NCCCNS(C)(=O)=O)s2)nc2c(C(F)(F)F)cc(C3CC3)cc12 [Compound 296],51.3%
16,Cc1cc(-c2nnc(NCC3OCCO3)s2)nc2c(C(F)(F)F)cc(C3CC3)cc12 [Compound 297],100%
17,Cc1cc(-c2nnc(NCCCN3CCOCC3)s2)nc2c(C(F)(F)F)cc(C3CC3)cc12 [Compound 298],88%
18,Cc1cc(-c2nnc(NCC3COCCN3)s2)nc2c(C(F)(F)F)cc(C3CC3)cc12 (centres unmarked) [Compound 299],98%
19,CNCCCNc1nnc(-c2cc(C)c3cc(C4CC4)cc(C(F)(F)F)c3n2)s1 [Compound 300],97.9%
20,Cc1cc(-c2nnc(NCC(O)CO)s2)nc2c(C(F)(F)F)cc(C3CC3)cc12 (centres unmarked) [Compound 301],99.6%
21,Cc1cc(-c2nnc(NCCC(C)O)s2)nc2c(C(F)(F)F)cc(C3CC3)cc12 (centres unmarked) [Compound 302],99.9%
22,Cc1cc(-c2nnc(NC[C@@H](O)CO)s2)nc2c(C(F)(F)F)cc(C3CC3)cc12 [Compound 303],98.2%
23,Cc1cc(-c2nnc(NCC(C)(C)CO)s2)nc2c(C(F)(F)F)cc(C3CC3)cc12 [Compound 304],96.2%
24,Cc1cc(-c2nnc(N)s2)nc2c(C(F)(F)F)cc(C3CC3)cc12 [Compound 305],96.6%

# Same assay, conditions: Hepatitis C virus, Huh-7, 72 h, HCV1B replicon, Huh-7 cells, 3 days; read-out: EC50_HCV1B_
row,Structure (SMILES),EC50
1,Cc1cc(-c2nnc(NCC3(CO)CC3)s2)nc2c(C(F)(F)F)cc(C3CC3)cc12 [Compound 306],1410 nM
2,Cc1cc(-c2nnc(NCCCCO)s2)nc2c(C(F)(F)F)cc(C3CC3)cc12 [Compound 307],14.1 nM
3,Cc1cc(-c2nnc(NCCO)s2)nc2c(C(F)(F)F)cc(C3CC3)cc12 [Compound 308],66 nM
4,Cc1cc(-c2nnc(NCCCS(N)(=O)=O)s2)nc2c(C(F)(F)F)cc(C3CC3)cc12 [Compound 309],7090 nM
5,Cc1cc(-c2nnc(NCC3CC(F)(F)CN3)s2)nc2c(C(F)(F)F)cc(C3CC3)cc12 (centres unmarked) [Compound 310],1570 nM
6,CO[C@@H]1CNC(CNc2nnc(-c3cc(C)c4cc(C5CC5)cc(C(F)(F)F)c4n3)s2)C1 (some centres unmarked) [Compound 311],1140 nM
7,Cc1cc(-c2nnc(NCC3CSCCN3)s2)nc2c(C(F)(F)F)cc(C3CC3)cc12 (centres unmarked) [Compound 312],2120 nM
8,Cc1cc(-c2nnc(Nc3cn[nH]c3)s2)nc2c(C(F)(F)F)cc(C3CC3)cc12 [Compound 313],10.2 nM
9,Nc1cc(C(=O)NC[C@@H]2CC(F)(F)CCN2)nc2c(C(F)(F)F)cc(OC(F)F)cc12 [Compound 314],26.1 nM
10,Nc1cc(C(=O)NC[C@H]2CC(F)(F)CCN2)nc2c(C(F)(F)F)cc(OC(F)F)cc12 [Compound 315],83.9 nM
11,CCC(CNC(=O)c1cc(N)c2cc(OC(F)F)cc(C(F)(F)F)c2n1)=NOC [Compound 316],61.8 nM
12,CC(=O)N1CCNC(CNC(=O)c2cc(N)c3cc(OC(F)F)cc(C(F)(F)F)c3n2)C1 (centres unmarked) [Compound 317],9790 nM
13,CS(=O)(=O)N1CCNC(CNC(=O)c2cc(N)c3cc(OC(F)F)cc(C(F)(F)F)c3n2)C1 (centres unmarked) [Compound 318],44400 nM
14,CC(C)(C)c1cc(C2CC2)cc2c(N)cc(C(=O)NCc3ncccn3)nc12 [Compound 319],0.81 nM
15,CC(C)(C)c1cc(C2CC2)cc2c(N)cc(C(=O)NCc3cnccn3)nc12 [Compound 320],1.7 nM
16,CC(C)(C)c1cc(C2CC2)cc2c(N)cc(C(=O)NCc3ccon3)nc12 [Compound 322],5.38 nM
17,CO[C@H]1CN[C@H](CNC(=O)c2cc(N)c3cc(C4CC4)cc(C(C)(C)C)c3n2)C1 [Compound 323],7 nM
18,CCC(O)CNC(=O)c1cc(N)c2cc(C3CC3)cc(C(C)(C)C)c2n1 (centres unmarked) [Compound 326],13.8 nM
19,CO[C@H]1CN[C@@H](CNC(=O)c2cc(N)c3cc(C4CC4)cc(C(C)(C)C)c3n2)C1 [Compound 327],16.5 nM
20,CO[C@@H]1CN[C@H](CNC(=O)c2cc(N)c3cc(C4CC4)cc(C(C)(C)C)c3n2)C1 [Compound 328],15.9 nM
21,CO[C@@H]1CN[C@@H](CNC(=O)c2cc(N)c3cc(C4CC4)cc(C(C)(C)C)c3n2)C1 [Compound 329],9.8 nM
22,CCO[C@H]1CN[C@H](CNC(=O)c2cc(N)c3cc(C4CC4)cc(C(C)(C)C)c3n2)C1 [Compound 330],19.8 nM
23,CCCO[C@H]1CN[C@H](CNC(=O)c2cc(N)c3cc(C4CC4)cc(C(C)(C)C)c3n2)C1 [Compound 331],243 nM

# Same assay, conditions: Hepatitis C virus, Huh-7, 72 h; read-out: Inhibition @ 10 uM in 1b-Rluc
row,Structure (SMILES),inhibition at 10 µM
1,CNC(=O)CNc1nnc(-c2cc(C)c3cc(C4CC4)cc(C(F)(F)F)c3n2)o1 [Compound 264],99.8%
2,Cc1cc(-c2nnc(Nc3cccc(F)c3)o2)nc2c(C(F)(F)F)cc(C3CC3)cc12 [Compound 271],100%

# From patent US20120053148A1, “INHIBITORS OF HEPATITIS C VIRUS” (GILEAD SCIENCES, INC., priority 2010, published 2012)
